Values joined by “and” are separate entries in the source; they are usually repeats but may differ in a detail not shown here. Equal values may be shown once.
Conditions: Liquid, Transpiration

NCCNCCNCCN [1,2-ethanediamine, N,N'-bis(2-aminoethyl)-]
Conditions | vapor or sublimation pressure
338.2 K | 0.00866 kPa
340.7 K | 0.01059 kPa
343.5 K | 0.0135 kPa
346.3 K | 0.01645 kPa
347.2 K | 0.01792 kPa
348.2 K | 0.01944 kPa
349.4 K | 0.0209 kPa
350.1 K | 0.022 kPa
350.2 K | 0.02259 kPa
352.4 K | 0.02695 kPa
353.2 K | 0.02857 kPa
355.2 K | 0.03317 kPa
355.4 K | 0.03445 kPa
356.2 K | 0.03575 kPa
358.5 K | 0.04226 kPa
359.2 K | 0.04519 kPa
361.2 K | 0.05252 kPa
363.2 K | 0.05873 kPa
364.2 K | 0.0654 kPa
365.4 K | 0.06908 kPa
367.4 K | 0.07992 kPa
368.1 K | 0.08563 kPa and 0.08484 kPa
370.2 K | 0.09747 kPa
370.4 K | 0.09756 kPa
371 K | 0.1008 kPa
373.3 K | 0.1176 kPa

CN1CCN(C)CC1 [1,4-dimethylpiperazine]
Conditions | vapor or sublimation pressure [kPa]
268.1 K | 0.2307
270.3 K | 0.2719
274.1 K | 0.3511
274.8 K | 0.3656
278.5 K | 0.486
280.1 K | 0.5177
283.6 K | 0.6602
286.1 K | 0.7611
288.5 K | 0.8272
291.1 K | 0.9973
293.6 K | 1.116
296.1 K | 1.359
298.5 K | 1.561
301.1 K | 1.834
303.4 K | 2.102
306.1 K | 2.518
308.5 K | 2.6
311.1 K | 3.202

CN1CCN(CCN)CC1 [1-(2-aminoethyl)-4-methyl-piperazine]
Conditions | vapor or sublimation pressure
297.8 K | 0.0246 kPa
298.8 K | 0.0265 kPa
302 K | 0.0341 kPa
302.7 K | 0.0368 kPa
304.6 K | 0.0433 kPa
307.2 K | 0.0548 kPa and 0.0538 kPa
310.5 K | 0.0691 kPa
311.6 K | 0.0765 kPa
313.2 K | 0.085 kPa
314.3 K | 0.0925 kPa
315.9 K | 0.1026 kPa
317.1 K | 0.1153 kPa
320.2 K | 0.1434 kPa
323.7 K | 0.1872 kPa
327.7 K | 0.2497 kPa
331.8 K | 0.3218 kPa

NCCN1CCNCC1 [N-(β-aminoethyl)piperazine)]
Conditions | vapor or sublimation pressure
295.7 K | 0.0064 kPa
297.7 K | 0.0079 kPa
300.4 K | 0.0096 kPa
303.3 K | 0.0127 kPa and 0.0131 kPa
304.7 K | 0.0144 kPa
305.6 K | 0.015 kPa
308.2 K | 0.0193 kPa
310.2 K | 0.0227 kPa
312.6 K | 0.028 kPa
314.6 K | 0.0333 kPa
317.5 K | 0.0414 kPa
320.7 K | 0.0534 kPa
323.1 K | 0.0653 kPa
326.4 K | 0.0835 kPa
328.2 K | 0.0943 kPa
330.5 K | 0.1135 kPa
330.7 K | 0.1203 kPa
333.1 K | 0.1411 kPa
333.2 K | 0.134 kPa
335.2 K | 0.1628 kPa
338.1 K | 0.1943 kPa

— the NIST ThermoML archive (doi:10.1016/j.jct.2009.09.003)
